In patent US20090325947A1, “NITRATE ESTERS OF PIPERIDINES” (priority 2006, published 2009):

Tested on: phenylephrine-precontracted vessels (thoracic aorta or femoral vein rings)
Assay: in vitro vascular reactivity test: relaxation of phenylephrine-precontracted aorta or vein rings
Details: at 100 μM; relative to phenylephrine (0.1 μM)-induced contractile tone
From the text: The determination of the nitrogen monoxide-releasing properties of a compound, be it by enzymatic or non-enzymatic action, can be carried out by means of in vitro vascular reactivity tests. The in vitro vascular reactivity test measures the ability of the released nitrogen monoxide to relax a pretensioned aorta ring or vein ring which is kept in an organ chamber. […] The thoracic aorta or the femoral vein is isolated from sacrificed and exsanguinated Wistar rats and cut up to give rings 2 mm long. The vascular rings are stored in organ chambers. Changes in the development of tension after the action of compounds are recorded by an isometric signal transmitter, which is connected to a computerized detection system. The computer program analyses time curves, period and size amounts between contractions.

COCCCN1CCOc2ccc(CO[C@H]3CNC[C@@H](OC[C@@H](C)O[N+](=O)[O-])[C@@H]3c3ccc(COCCOC)cc3)cc21 [Example 6]
relaxation, percentage of the maximal vessel relaxation achieved with sodium nitroprusside (SNP): 15%

COCCCN1CCOc2ccc(CO[C@H]3CNC[C@@H](OC[C@H](O)CO[N+](=O)[O-])[C@@H]3c3ccc(COC[C@@H](C)COC)cc3)cc21 [Example 8, (S)-1-{(3S,4R,5R)-4-[4-((S)-3-Methoxy-2-methyl-Propoxymethyl)phenyl]-5-[4-(3-methoxypropyl)-3,4-dihydro-2H-benzo[1,4]oxazin-6-ylmethoxy]-piperidin-3-yloxy}-3-nitrooxypropan-2-ol]
relaxation, percentage of the maximal vessel relaxation achieved with sodium nitroprusside (SNP): 20%

COCCCN1CCOc2ccc(CO[C@H]3CNC[C@@H](O[N+](=O)[O-])[C@@H]3c3ccc(COC[C@@H](C)COC)cc3)cc21 [Example 9, 6-{(3R,4R,5S)-4-[4-((S)-3-Methoxy-2-methylpropoxy-methyl)phenyl]-5-nitrooxypiperidin-3-yloxy-methyl}-4-(3-methoxypropyl)-3,4-dihydro-2H-benzo-[1,4]oxazine]
relaxation, percentage of the maximal vessel relaxation achieved with sodium nitroprusside (SNP): 8%

COCCCN1CCOc2ccc(CO[C@H]3CNC[C@@H](OC[C@@H](COC)O[N+](=O)[O-])[C@@H]3c3ccc(COC[C@@H](C)COC)cc3)cc21 [Example 14]
relaxation, percentage of the maximal vessel relaxation achieved with sodium nitroprusside (SNP): 25%

COCCCN1CCOc2ccc(CO[C@H]3CNC[C@@H](CO[N+](=O)[O-])[C@@H]3c3ccc(COC[C@@H](C)COC)cc3)cc21 [Example 21, 6-{(3R,4R,5S)-4-[4-((S)-3-Methoxy-2-methyl-propoxymethyl)phenyl]-5-nitro-oxymethylpiperidin-3-yloxymethyl}-4-(3-methoxypropyl)-3,4-dihydro-2H-benzo[1,4]oxazine]
relaxation, percentage of the maximal vessel relaxation achieved with sodium nitroprusside (SNP): 20%

COCCCN1CCOc2ccc(CO[C@H]3CNC[C@@H](OC[C@H](COC)O[N+](=O)[O-])[C@@H]3c3ccc(COC[C@@H](C)COC)cc3)cc21 [Example 34, 6-[(3R,4R,5S)-4-[4-((S)-3-Methoxy-2-methylpropoxy-methyl)phenyl]-5-((S)-3-methoxy-2-nitrooxy-propoxy)piperidin-3-yloxymethyl]-4-(3-methoxy-propyl)-3,4-dihydro-2H-benzo[1,4]oxazine]
relaxation, percentage of the maximal vessel relaxation achieved with sodium nitroprusside (SNP): 8%
